Assay results published in PubChem BioAssay (NCI).
Values joined by “and” are separate entries in the source; they are usually repeats but may differ in a detail not shown here. Identical values can stand only once.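 Briefly, cells in 96-well plates were exposed to five compound concentrations for 48 h, and endpoints were estimated by linear interpolation. GI50 is the concentration that inhibits growth by half. TGI marks complete inhibition of growth.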

Experiments:
Test in all cases: NCI tumour cell line growth inhibition, 48 h
HCT-15 colon = tested on: HCT-15 colon
NCI/ADR-RES ovarian = tested on: NCI/ADR-RES ovarian
OVCAR-5 ovarian = tested on: OVCAR-5 ovarian
T-47D breast = tested on: T-47D breast
UACC-62 melanoma = tested on: UACC-62 melanoma
UO-31 renal = tested on: UO-31 renal
DMS 114 small cell lung = tested on: DMS 114 small cell lung
HOP-18 NSCLC = tested on: HOP-18 NSCLC
KM20L2 colon = tested on: KM20L2 colon
LXFL 529 NSCLC = tested on: LXFL 529 NSCLC

Compound | TGI (HCT-15 colon) | TGI (NCI/ADR-RES ovarian) | TGI (OVCAR-5 ovarian) | TGI (T-47D breast) | TGI (UACC-62 melanoma) | TGI (UO-31 renal) | further results
Clc1ccc(-c2nnc(-c3c(Cl)c(Cl)c(Cl)c(Cl)c3-c3nc4ccccc4[nH]3)o2)cc1 | > 100 µM | > 100 µM | > 100 µM | > 100 µM | > 100 µM | > 100 µM | –
O=c1/c(=C/c2ccc([N+](=O)[O-])o2)sc2n1[C@@H](c1ccc3c(c1)OCO3)C=C(c1cc(F)c(Cl)cc1Cl)N=2 | 64.9 µM | > 100 µM | 43.8 µM | 59.3 µM | 34 µM | 42.2 µM | –
COc1cc2c(cc1OCCCN1CCN(c3ncnc4ccccc34)CC1)N=CC1CCCN1C2=O (centres undefined) | – | 7.11 µM | 0.0717 µM | 0.0757 µM | 0.0379 µM | 0.558 µM | GI50 (NCI/ADR-RES ovarian): 0.373 µM; GI50 (OVCAR-5 ovarian): 0.0263 µM; GI50 (T-47D breast): 0.0222 µM; GI50 (UACC-62 melanoma): 0.018 µM; GI50 (UO-31 renal): 0.0754 µM
Nc1nc(=O)n(CC(O)CO)s1 (centres undefined) | > 100 µM | – | > 100 µM | – | > 100 µM | > 100 µM | TGI (DMS 114 small cell lung): > 100 µM; TGI (HOP-18 NSCLC): > 100 µM; TGI (KM20L2 colon): > 100 µM; TGI (LXFL 529 NSCLC): > 100 µM
N#C[S-].[Ce+3].c1cnc2c(c1)ccc1cccnc12.c1cnc2c(c1)ccc1cccnc12.c1cnc2c(c1)ccc1cccnc12 | – | – | 16.1 µM | – | 10.1 µM | 11.5 µM | GI50 (DMS 114 small cell lung): 1.64 µM; TGI (DMS 114 small cell lung): 4.52 µM; GI50 (HOP-18 NSCLC): 1.2 µM; TGI (HOP-18 NSCLC): 7.53 µM; GI50 (KM20L2 colon): 1.33 µM; TGI (KM20L2 colon): 14.7 µM; GI50 (LXFL 529 NSCLC): 2.3 µM; TGI (LXFL 529 NSCLC): 24.6 µM
Fc1c(F)c(C(F)(F)F)c(F)c(F)c1N/N=C/c1cn(Cc2ccccc2)c2ccccc12 | > 100 µM | 59.1 µM | 41.9 µM | 83.6 µM | 61.5 µM | 52.9 µM | –
O=C1C[C@H](CCC(=O)OCc2ccccc2)NC(=O)C[C@H](CCC(=O)OCc2ccccc2)NC(=O)C[C@H](CCC(=O)OCc2ccccc2)N1 | > 100 µM | > 100 µM | > 100 µM | > 100 µM | > 100 µM | > 100 µM | –
C[C@]12CCC(=O)C=C1CC[C@@H]1[C@@H]2[C@@H](O)C[C@@]2(C)[C@H]1CC[C@]2(O)C(=O)COC(=O)C1CCCC1 | > 100 µM | > 100 µM | > 100 µM | > 100 µM | > 100 µM | > 100 µM | –
CNC(=O)Nc1ccccc1 | > 100 µM | > 100 µM | > 100 µM | > 100 µM | > 100 µM | > 100 µM | –
CC(=O)C1=C(O)CCC1=O | – | > 100 µM | > 100 µM | > 100 µM | > 100 µM | > 100 µM | –
C[N+](C)(CCO)CCN1c2ccccc2Sc2ccccc21 | > 10 µM | > 10 µM | > 10 µM | > 10 µM | > 10 µM | > 10 µM | –
Cc1nnc2n1N=C(c1cc(F)c(Cl)cc1Cl)/C(=C/c1ccc3c(c1)OCO3)S2 | > 100 µM | > 100 µM | > 100 µM | > 100 µM | > 100 µM | > 100 µM | –
COc1ccc(C2=NN(C(=O)c3cccnc3)C(O)(c3cc(F)c(Cl)cc3Cl)C2)cc1OC (centres undefined) | 35 µM | 49.9 µM | > 100 µM | > 100 µM | – | 85 µM | –
COc1ccc(C2C(C=O)C(N3CCN(C)CC3)=Nc3nc4ccccc4n32)cc1 (centres undefined) | 46.5 µM | 53.7 µM | 59.7 µM | 40.6 µM | 36.5 µM | 32.4 µM | –
NC(CC(=O)O)(Cc1ccccc1)C(=O)O (centres undefined) | > 100 µM | > 100 µM | > 100 µM | > 100 µM | > 100 µM | > 100 µM | –
O=C(NNC(=O)c1nsc2ccccc12)c1ccc(Cl)cc1 | 36.4 µM | – | 46.4 µM | – | – | 55.4 µM | TGI (HOP-18 NSCLC): 27.4 µM; TGI (KM20L2 colon): 53.8 µM; TGI (LXFL 529 NSCLC): 39.8 µM
Cc1ccc(SSCCCCCS(=O)O)cc1 | – | – | > 100 µM | – | 49.5 µM | 67.2 µM | TGI (DMS 114 small cell lung): 45.2 µM; TGI (LXFL 529 NSCLC): 28.5 µM
COc1ccc(C)cc1Nc1nnc(-c2ccc(N)cc2)s1 | > 100 µM | > 100 µM | > 100 µM | > 100 µM | > 100 µM | > 100 µM | –
CN(C)CCCN1c2ccccc2CCc2cc([N+](=O)[O-])ccc21 | 83.3 µM and 37.4 µM | 82 µM and 39.8 µM | 63.9 µM and 31.8 µM | 43.9 µM and 37.7 µM | 29.2 µM and 27.5 µM | 70.8 µM and 28.7 µM | –
CCOC(=O)c1c(CN2CCCC2)n(-c2ccccc2)c2cc(Br)c(OC)cc12 | 34.1 µM | 80.8 µM | 45.7 µM | 38.6 µM | 23.8 µM | 29.8 µM | –
COc1cc2c(cc1OC)-c1cc3ccc(OC)c(OC)c3c[n+]1CC2 | > 100 µM | > 100 µM | > 100 µM | > 100 µM | > 100 µM | > 100 µM | –
